Experimental findings from US12516049B2, “Sulfonylurea ring substituted monocyclic β-lactam antibiotics” (priority 2019, dated 2026) are described below.

Assay [1] concerns Klebsiella pneumoniae ATCC-BAA 2470. Briefly: Mouse thigh muscle infection model, Klebsiella pneumoniae ATCC-BAA 2470. The class given is in vivo. To be noted: immunodeficient female CD-1 mice; Klebsiella pneumoniae ATCC-BAA 2470 9.5E+06 CFU/mouse; 200 mg/kg every 2 h from 2 h; end point 24 h. As to the method:
15 female CD-1 mice were divided into 5 cages, 3 mice per cage; the day of infection was counted as day 0.
Immunosuppressant cyclophosphamide 150 mg/kg were injected intraperitoneally on Day-4, and immunosuppressant cyclophosphamide 100 mg/kg was injected intraperitoneally again on the first day to obtain immunodeficient mice.
The strain Klebsiella pneumoniae ATCC-BAA 2470 was recovered on an MHA plate on the first day. The recovered colonies were picked and dissolved in sterile saline to prepare bacterial solution with a concentration of 9.5E+07 CFU/mL for use in mouse thigh muscle infection. The infection starting time was counted as 0 h, and 100 μL of bacterial solution is injected into the thigh muscle of each mouse at 0 h, that is, the inoculation amount is 9.5E+06 CFU/mouse. 2 h after infection, the drugs were administered according to the experimental scheme. The specific experimental scheme is as follows (see Table 5): […]
(2) 2 h after infection: Mice in the second to third cages were administered separately at a volume of 10 mL/kg according to the mouse body weight. […] The amount of bacteria loaded in the thigh muscle tissue of the mouse was counted, and the experimental results were shown in Table 6.

The test system of assay [2] is clinically isolated carbapenem-resistant enterobacteriaceae. The class given is cell-based. The following applies: single drug; panel of 26 strains of Table 2. As to the method: (§1) The minimum inhibitory concentration (MIC) of the compound and combination with β-lactamase (MBLs) inhibitors against clinically isolated carbapenem-resistant enterobacteriaceae was determined by the two-fold agar dilution method to determine the activity of the compound to be tested against strains producing MBLs. […] The mother liquor was diluted to the concentration to be tested by double dilution method, an inoculum liquid was prepared by direct bacterial suspension method, 1 mL of the prepared bacteria solution was withdrawn and putted into the inoculation tube, and a positioning needle and an inoculation needle were installed. A bacterial multi-point inoculator was started for inoculation. After the bacterial solution was absorbed by the agar, the plate was placed upside down in an incubator at 37° C. for 16-20 hours, and the results were observed. The average of three tests was taken.

For another assay, the system named is E.coli 115105. Put plainly: MIC, two-fold agar dilution, clinical isolate. The class given is cell-based. To be noted: Escherichia coli, single drug, average of three tests. As to the method:
as §1
In general terms: Agar dilution tests growth on a series of plates holding different concentrations.

A further assay concerns K.p HX30. Briefly: MIC, two-fold agar dilution, clinical isolate. In kind it is cell-based. To be noted: K.p HX30; single drug; average of three tests; read-out: MIC. On the procedure: as §1
Another assay concerns E.coli 115101. Put plainly: MIC, two-fold agar dilution, clinical isolate. The class given is cell-based. The following applies: Escherichia coli; E.coli 115101; single drug; average of three tests; read-out: MIC. On the procedure: as §1

For `NC[C@@H]1CN(C[C@@H]2[C@H](NC(=O)/C(=N\OC3(C(=O)O)CC3)c3csc(N)n3)C(=O)N2S(=O)(=O)O)S(=O)(=O)N1` [Compound 4], the “Average CFU of the mouse (amount of bacteria loaded in thigh muscle tissue)” value in assay [1] is given as 3.93E+06 CFU/mouse. In assay [2], the MIC50 amounted to 0.125 µg/mL. For the same compound, the MIC90 in assay [2] was determined as 1 µg/mL. In addition, the MIC in the assay on E.coli 115105 worked out at 1 µg/mL; in the assay on K.p HX30 it was 0.5 µg/mL; in the assay on E.coli 115101 it was 0.5 µg/mL.

In general, MIC50 refers to the lowest concentration that inhibits either 50% of growth or 50% of the strains tested, depending on the study. What is called MIC90 is an inhibitory concentration at the 90% level, which refers to growth in some studies and to a panel of isolates in others. As a reminder, the MIC is the lowest concentration found to suppress growth.
